Test results: EPA's ToxValDB 9.5 (doi:10.2903/j.efsa.2016.4374)
In brackets after ≈: the same amount, converted by molar mass.

Experiments:
Anas platyrhynchos = details: acute; oral; unspecified; mortality
Canidae = details: subchronic; duration: 90 days; oral; Dog Other; organ weight
Tagia sp. = details: chronic/long-term; duration: 56 days; reproduction
Danio rerio = details: chronic; growth
Daphnia magna = details: chronic/long-term; reproduction
Myriophyllum spicatum = details: acute; growth
Hypoaspis aculeifer = details: chronic/long-term; duration: 14 days; mortality
Bibionidae = details: chronic/long-term; growth
Apis mellifera = details: acute, duration: 48 hours, mortality
Pleurozium sp. = details: acute; growth
Folsomia candida = details: chronic/long-term; duration: 28 days; mortality
Cyprinus carpio = details: acute; mortality
Typhlodromus pyri = assay: LR50; higher = less toxic; details: not reported; mortality

CCOC1Oc2ccc(OS(C)(=O)=O)cc2C1(C)C (centres undefined) [Ethofumesate]
LD50 (Anas platyrhynchos): 3780 mg/kg-day
NOAEL (Canidae): 250 mg/kg-day
NOEC (Tagia sp.): 12.5 mg/kg
NOEC (Danio rerio): 0.156 mg/L
NOEC (Daphnia magna): 0.25 mg/L
NOEC (Myriophyllum spicatum): 0.25 mg/L
NOEC (Hypoaspis aculeifer): 22.1 mg/kg
LD50 (Rattus norvegicus; acute, oral, mortality): > 5000 mg/kg-day
NOAEL (Rattus norvegicus; chronic, duration: 2 years, oral, F, organ weight): 101 mg/kg-day
NOAEL (Rattus norvegicus; reproduction developmental, body weight): 60.9 mg/kg-day
NOEC (Bibionidae): 3.82 mg/L
LD50 (Apis mellifera; dermal): > 50 µg/piece
LD50 (Apis mellifera; oral, unspecified): > 50 µg/piece
NOEC (Pleurozium sp.): 9.68 mg/L
NOEC (Folsomia candida): 13.3 mg/kg
LC50 (Cyprinus carpio): 10.9 µg/mL (≈ 38.1 µM)
LD50 (Colinus virginianus; acute, oral, mortality): 3780 mg/kg-day
NOEL (Colinus virginianus; reproduction developmental): 265 mg/kg-day
LR50 (Typhlodromus pyri): > 1000 g/ha
